Laboratory results published in PubChem BioAssay (NCI).
Values joined by “and” are separate entries in the source; they are usually repeats but may differ in a detail not shown here. Equal entries are not always repeated.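 How tested: cells in 96-well plates exposed to compound for 48 hours at five concentrations. Abbreviation: GI50, concentration required for 50% inhibition of growth. The concentration for full growth arrest is given as TGI.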

Assays:
Experiment in all cases: DTP human tumour cell line panel, 48 h
ACHN renal = test system: ACHN renal
HCT-116 colon = test system: HCT-116 colon
HL-60(TB) leukemia = test system: HL-60(TB) leukemia
HOP-92 NSCLC = test system: HOP-92 NSCLC
M14 melanoma = test system: M14 melanoma
MDA-MB-231 breast = test system: MDA-MB-231 breast
MOLT-4 leukemia = test system: MOLT-4 leukemia
NCI-H226 lung = test system: NCI-H226 lung
SF-539 CNS = test system: SF-539 CNS
SK-MEL-5 melanoma = test system: SK-MEL-5 melanoma

| SMILES | GI50 (ACHN renal) | TGI (ACHN renal) | GI50 (HCT-116 colon) | TGI (HCT-116 colon) | GI50 (HL-60(TB) leukemia) | TGI (HL-60(TB) leukemia) | GI50 (HOP-92 NSCLC) | TGI (HOP-92 NSCLC) | GI50 (M14 melanoma) | TGI (M14 melanoma) | GI50 (MDA-MB-231 breast) | TGI (MDA-MB-231 breast) | GI50 (MOLT-4 leukemia) | TGI (MOLT-4 leukemia) | GI50 (NCI-H226 lung) | TGI (NCI-H226 lung) | GI50 (SF-539 CNS) | TGI (SF-539 CNS) | GI50 (SK-MEL-5 melanoma) | TGI (SK-MEL-5 melanoma) |
| --- | --- | --- | --- | --- | --- | --- | --- | --- | --- | --- | --- | --- | --- | --- | --- | --- | --- | --- | --- | --- |
| O=C(/C=C/CN1CCCCC1)Nc1cc2c(Nc3ccc(F)c(Cl)c3F)ncnc2cc1OCCOC(F)F | < 0.01 µM | 1.55 µM | 1.31 µM | 8.43 µM | 1.4 µM | 5.68 µM | 0.0548 µM | 1.12 µM | 2.12 µM | 6.61 µM | 0.882 µM | 4.88 µM | 1.15 µM | 5.27 µM | 1.48 µM | 5.73 µM | 1.12 µM | 3.56 µM | 1.54 µM | 3.07 µM |
| Cc1cccc(NC(=O)c2sc3nc4c(cc3c2N)CCC4)c1C | 0.951 µM | 36.7 µM | 0.381 µM | 11.8 µM | 0.239 µM | 0.864 µM | 0.449 µM | 19 µM | 0.236 µM | 2.4 µM | 0.594 µM | 29.3 µM | 0.576 µM | > 100 µM | 2.65 µM | 36.8 µM | 0.241 µM | 2.51 µM | 0.268 µM | 11.1 µM |
| C[CH2][Ge]1([CH2]C)[CH2]CC2(CCN(CCCN(C)C)C2)C[CH2]1 | 1.84 µM and 1.7 µM | 3.66 µM and 3.95 µM | 1.45 µM | 2.79 µM and 1 µM | 0.312 µM and 1.21 µM | 1.61 µM and 1.79 µM | 0.201 µM and 1 µM | 1.65 µM and 1.34 µM | 0.333 µM | 0.624 µM | 1.46 µM | 2.96 µM |  | 2.91 µM and 25.7 µM | 2.24 µM and 17.3 µM | 4.92 µM and 32.1 µM | 1.78 µM and 1.71 µM | 3.54 µM and 3.34 µM | 0.444 µM and 1.44 µM | 1.13 µM and 2.22 µM |
| C=C1C(=O)O[C@H]2[C@H]1CC/C(Cn1cc(CNC(=O)c3cc4ccccc4[nH]3)nn1)=C\CC[C@@]1(C)O[C@@H]21 | 4.73 µM | 17.2 µM | 1.59 µM | 3.56 µM | 2.45 µM | 5.79 µM | 1.53 µM | 3.16 µM | 2.09 µM | 6.27 µM | 1.97 µM | 3.78 µM | 2.71 µM | 7.15 µM | 2.57 µM | 6.15 µM | 2.85 µM | 8.65 µM | 8.1 µM | 23.4 µM |
| Cn1cc(C2=C(c3cn(CCCSC(=N)N)c4ccccc34)C(=O)NC2=O)c2ccccc21 | 4.42 µM | 9.31 µM | 1.1 µM | 4.62 µM | 0.789 µM | 2.14 µM | 3.83 µM | 11.2 µM | 3.56 µM | 7.77 µM | 2.11 µM | 9.52 µM | 1.93 µM | 8.08 µM | 1.49 µM | 7.29 µM | 1.9 µM | 5.16 µM | 1.56 µM | 4.27 µM |
| O=C(NC(c1ccccc1)C(O)C(=O)OCc1ccc2c(c1)C(=O)c1ccccc1C2=O)c1ccccc1 (centres undefined) |  | 43.7 µM |  | 39.1 µM |  | > 100 µM |  | 7.91 µM |  | > 80.5 µM |  | 30.6 µM |  | > 100 µM |  | 18.7 µM |  | 20.6 µM |  | 40.3 µM |
| Oc1ccc(-c2nc(-c3ccc4oc5ccc(-c6[nH]c(-c7ccc(O)cc7)nc6-c6ccccc6)cc5c4c3)c(-c3ccccc3)[nH]2)cc1 | 5.2 µM | 20.3 µM | 3.85 µM | > 100 µM | 2.79 µM | 8.09 µM | 2.19 µM | 6.53 µM | 3.9 µM | > 100 µM | 2.57 µM | 7.46 µM | 2.34 µM | 7.09 µM | 13.3 µM | > 100 µM | 4.17 µM | 21.3 µM | 4.46 µM | 75.5 µM |
| Cn1c([N+](=O)[O-])cnc1/C=C1\Oc2ccc(Cl)cc2C1=O | 0.258 µM | 0.921 µM | 0.247 µM | 0.793 µM | 0.511 µM | 4.67 µM | 1.03 µM | 4.12 µM | 0.636 µM | 4.26 µM | 0.783 µM | 4.64 µM | 0.32 µM | 3.32 µM | 1.64 µM | 4.64 µM | 1.62 µM | 3.69 µM | 0.727 µM | 2.14 µM |
| COc1ccc(/C=C2\CN(Cc3cn(CCCNc4ccnc5cc(Cl)ccc45)nn3)C/C(=C\c3ccc(OC)cc3)C2=O)cc1 | 12.9 µM | 25.6 µM | 2.8 µM | 12.4 µM | 3.27 µM | 18.2 µM | 0.962 µM | 15.9 µM | 4.15 µM | 16.2 µM | 5.39 µM | 28.4 µM | 2.55 µM | 9.4 µM | 25.5 µM | > 100 µM | 13.9 µM | 26.8 µM | 10.5 µM | 22.3 µM |
| COc1cc(OC)c(-c2oc3ccccc3c(=O)c2O)c(OC)c1 |  | > 100 µM |  | > 100 µM |  | > 24.1 µM |  | > 100 µM |  | > 100 µM |  | > 100 µM |  | > 100 µM |  | > 100 µM |  | > 100 µM |  | > 100 µM |
| NC(=O)NOCC1NC(=O)NC1=O (centres undefined) |  | > 100 µM |  | > 100 µM |  | > 100 µM |  | > 100 µM |  | > 100 µM |  | > 100 µM |  | > 100 µM |  | > 100 µM |  | > 100 µM |  | > 100 µM |
| CCOC(=O)C(Cc1ccc(N(CCCl)CCCl)cc1)NC(=O)C(CC(C)C)NC(C)=O (centres undefined) | 0.173 µM | 1.42 µM | 1.06 µM | 3.56 µM | 0.304 µM | 1.9 µM | 0.727 µM | 2.82 µM | 0.568 µM | 2.19 µM | 2 µM | 4.94 µM | 0.302 µM | 2.4 µM | 3.79 µM | 10.7 µM | 1.09 µM | 7.01 µM | 2.45 µM | 9.82 µM |
| COc1ccc(-c2nccn2-c2cc(OC)c(OC)c(OC)c2)cc1 | 6.07 µM | > 100 µM | 1.9 µM | > 100 µM | 25.4 µM | > 100 µM | 7.01 µM | > 100 µM | 6 µM | > 100 µM | 7.62 µM | 90.3 µM | 18.3 µM | > 100 µM | 14.6 µM | > 100 µM | 5.78 µM | 24.4 µM | 0.758 µM | > 69.5 µM |
